Experimental findings from patent US20260049104A1, “PEPTIDES WITH ANTIMICROBIAL PROPERTIES” (priority 2022, published 2026) are described below.

Converted amounts (≈) assume the structure as drawn. Read-outs that look alike come from different tables or passages of the source. No end group written: not given here. Bounds are passed on as bounds.

One may read the MIC as the lowest concentration found to suppress growth. Read a high MIC as a need for much substance.

The test system of one assay is Pseudomonas aeruginosa. Format: cell-based. The conditions noted are these: Table 15, unit inferred. From the text: The experiments were repeated three times.
In another assay the test system is Acinetobacter baumannii. The following applies: Table 15, unit inferred. As for the experimental part:
(§1) MIC screening of the peptides against a panel of ATCC and clinical strains was performed using broth microdilution method.^1 Briefly, peptides stock solutions in DMSO (0.1/G TFA) were diluted into Mueller Hinton Broth (MHB), followed by two-fold serial dilution in a 96-well plate. Bacteria culture in mid-log phase was diluted into MHB to yield […] colony-forming units (CFU)/mL. Equal volume of the starting inoculum was added to the peptide samples, then incubated for 18-20 h (37° C., 120 rpm). OD600 of the samples was then measured using Tecan Infinite M200 (TECAN, Männedorf, Switzerland). MIC is defined as the lowest peptide concentration to achieve more than 90% reduction in OD600 relative to the drug-free control. The experiments were repeated three times. Colistin-resistant clinical isolates are a kind gift from Dr. Jeanette Koh (National University Hospital, Singapore). Multidrug-resistant clinical isolates are a kind gift from Dr. Lakshminarayanan Rajamani (Singapore Eye Research Institute, Singapore).
(§2) Kanamycin and ampicillin were used as antibacterial control agents. […] Then, sequential 2-fold serial dilutions of the mix were diluted in 50 μL MH broth and 50 μL cell cultures were added to wells. […] All assays were carried out in triplicate.

The next assay concerns Enterobacter cloacae. The conditions noted are these: Table 15, unit inferred. As for the experimental part:
as §1, §2

The next assay relates to Escherichia coli. The conditions noted are these: for MIC value: Table 15, unit inferred. As to the method: as §1, §2
A further assay deals with Klebsiella pneumoniae. The conditions noted are these: for MIC value: Table 15, unit inferred. As to the method:
as §1, §2

Where [1] appears, read: Pseudomonas aeruginosa DR4877/07.
Setting [2] is: Pseudomonas aeruginosa DR5790/07.
The mark [3] stands for this setting: Acinetobacter baumanii ACβA1001.
Where [4] appears, read: Acinetobacter baumanii ACβA1002.
Setting [5] is: Acinetobacter baumanii ACβA1003.
Where [6] appears, read: Acinetobacter baumanii ACβA1004.
Setting [7] is: ATCC 25922, printed under Klebsiella pneumoniae.

Take `CC(C)[C@@H]1NC(=O)[C@@H](N)Cc2c[nH]c3cc(ccc23)C(C(N)=O)[C@@H](C(=O)N[C@@H](C)C(=O)N[C@H]2Cc3cccc(c3)C(CCNC(=N)N)[C@@H](C(=O)N[C@H]3Cc4c[nH]c5cc(ccc45)C(CCNC(=N)N)[C@@H](C(=O)N[C@@H](CCCNC(=N)N)C(=O)N[C@@H](Cc4c[nH]c5ccccc45)C(=O)O)NC(=O)[C@H](CO)NC3=O)NC(=O)[C@H](C)NC2=O)NC1=O` (stereo partly drawn) [xenorceptide A11]: the MIC value in the assay on Pseudomonas aeruginosa (Pseudomonas aeruginosa DM4150R) was 16 µg/mL (≈ 9.82 µM); in the assay on Pseudomonas aeruginosa (Pseudomonas aeruginosa DM23376), 16 µg/mL (≈ 9.82 µM); against Pseudomonas aeruginosa (setting [1]), 32 µg/mL (≈ 19.6 µM); against Pseudomonas aeruginosa (setting [2]), 32 µg/mL (≈ 19.6 µM); against Acinetobacter baumannii (setting [3]), 16 µg/mL (≈ 9.82 µM); against Acinetobacter baumannii (setting [4]) it was 16 µg/mL (≈ 9.82 µM). In addition, the MIC value was 16 µg/mL (≈ 9.82 µM) against Acinetobacter baumannii (setting [5]); 16 µg/mL (≈ 9.82 µM) in the assay on Acinetobacter baumannii (setting [6]); 4 µg/mL (≈ 2.46 µM) against Enterobacter cloacae (Enterobacter cloacae CRE1010); 8 µg/mL (≈ 4.91 µM) against Enterobacter cloacae (Enterobacter cloacae CRE1014); 16 µg/mL (≈ 9.82 µM) with Enterobacter cloacae (Enterobacter cloacae CRE1015); 8 µg/mL (≈ 4.91 µM) in the assay on Enterobacter cloacae (Enterobacter cloacae CRE1016). The MIC value in the assay on Enterobacter cloacae (Enterobacter cloacae CRE1017) was 16 µg/mL (≈ 9.82 µM); against Escherichia coli (Escherichia coli M2), 8 µg/mL (≈ 4.91 µM); in the assay with Escherichia coli (Escherichia coli M6), 4 µg/mL (≈ 2.46 µM); with Escherichia coli (Escherichia coli M10), 2 µg/mL (≈ 1.23 µM); against Escherichia coli (Escherichia coli M11), 4 µg/mL (≈ 2.46 µM); in the assay with Klebsiella pneumoniae (setting [7]), 1 µg/mL (≈ 0.614 µM). The MIC value in the assay on Klebsiella pneumoniae (CRE1006, Klebsiella pneumoniae) stood at 4 µg/mL (≈ 2.46 µM); in the assay on Klebsiella pneumoniae (Klebsiella pneumoniae CRE 1007), 4 µg/mL (≈ 2.46 µM); against Klebsiella pneumoniae (Klebsiella pneumoniae CRE1008), 4 µg/mL (≈ 2.46 µM); against Klebsiella pneumoniae (Klebsiella pneumoniae CRE1011) it was 4 µg/mL (≈ 2.46 µM); with Klebsiella pneumoniae (Klebsiella pneumoniae CRE1012) it was 4 µg/mL (≈ 2.46 µM).
For the compound `CC(C)[C@@H]1NC(=O)[C@@H](N)Cc2c[nH]c3cc(ccc23)C(C(N)=O)[C@@H](C(=O)N[C@@H](C)C(=O)N[C@H]2Cc3cccc(c3)C(CCNC(=N)N)[C@@H](C(=O)N[C@H]3Cc4c[nH]c5cc(ccc45)C(CCCN)[C@@H](C(=O)N[C@@H](CCCNC(=N)N)C(=O)N[C@@H](Cc4c[nH]c5ccccc45)C(=O)O)NC(=O)[C@H](CO)NC3=O)NC(=O)[C@H](C)NC2=O)NC1=O` (stereo partly drawn) [xenorceptide A12-1], the MIC value against Pseudomonas aeruginosa (Pseudomonas aeruginosa DM4150R) was 32 µg/mL (≈ 20 µM); against Pseudomonas aeruginosa (Pseudomonas aeruginosa DM23376) it was more than 32 µg/mL; against Pseudomonas aeruginosa (setting [1]), 32 µg/mL (≈ 20 µM); with Pseudomonas aeruginosa (setting [2]), 32 µg/mL (≈ 20 µM); in the assay with Acinetobacter baumannii (setting [3]), 8 µg/mL (≈ 5 µM); in the assay on Acinetobacter baumannii (setting [4]), 8 µg/mL (≈ 5 µM). The MIC value in the assay with Acinetobacter baumannii (setting [5]) was 8 µg/mL (≈ 5 µM); in the assay on Acinetobacter baumannii (setting [6]), 8 µg/mL (≈ 5 µM); against Enterobacter cloacae (Enterobacter cloacae CRE1010), 2 µg/mL (≈ 1.25 µM); with Enterobacter cloacae (Enterobacter cloacae CRE1014), 8 µg/mL (≈ 5 µM); against Enterobacter cloacae (Enterobacter cloacae CRE1015) it was 16 µg/mL (≈ 9.99 µM); against Enterobacter cloacae (Enterobacter cloacae CRE1016), 8 µg/mL (≈ 5 µM). Besides, the MIC value came out at 16 µg/mL (≈ 9.99 µM) against Enterobacter cloacae (Enterobacter cloacae CRE1017); 8 µg/mL (≈ 5 µM) against Escherichia coli (Escherichia coli M2); 2 µg/mL (≈ 1.25 µM) with Escherichia coli (Escherichia coli M6); 2 µg/mL (≈ 1.25 µM) in the assay on Escherichia coli (Escherichia coli M10); 2 µg/mL (≈ 1.25 µM) in the assay with Escherichia coli (Escherichia coli M11); 2 µg/mL (≈ 1.25 µM) in the assay on Klebsiella pneumoniae (setting [7]). Further, the MIC value stood at 2 µg/mL (≈ 1.25 µM) in the assay with Klebsiella pneumoniae (CRE1006, Klebsiella pneumoniae); 2 µg/mL (≈ 1.25 µM) in the assay with Klebsiella pneumoniae (Klebsiella pneumoniae CRE 1007); 4 µg/mL (≈ 2.5 µM) in the assay on Klebsiella pneumoniae (Klebsiella pneumoniae CRE1008); 4 µg/mL (≈ 2.5 µM) against Klebsiella pneumoniae (Klebsiella pneumoniae CRE1011); 4 µg/mL (≈ 2.5 µM) against Klebsiella pneumoniae (Klebsiella pneumoniae CRE1012).
In the assay on Klebsiella pneumoniae (Klebsiella pneumoniae ATC 700603, Table 14, preliminary screening), `CC[C@H](C)[C@@H]1NC(=O)[C@@H](NC(=O)[C@H]2NC(=O)[C@H](CC(C)C)NC(=O)[C@@H](NC(=O)[C@H](CCCNC(=N)N)NC(=O)CNC(=O)[C@@H](N)CC(=O)O)Cc3c[nH]c4cc(ccc34)C2CC(N)=O)Cc2c[nH]c3cc(ccc23)C(CCCN)[C@@H](C(=O)N[C@@H](CC(N)=O)C(=O)N[C@@H](Cc2c[nH]cn2)C(=O)O)NC1=O` (stereo partly drawn) [Compound 27] registered an MIC of 8 µg/mL (≈ 5.52 µM).
On to WVNAYARWTKRF [SEQ ID 26], for which the “MIC (E. coli)” value with Escherichia coli (strain not stated, product produced and tested against E. coli) is 8 µg/mL.
